Laboratory results published in US20140342065A1 (priority 2012, published 2014).

Experiments:
[1] = test system: freshly cut pears and peaches; test: NaHS solution fumigation of freshly cut pears and peaches
Method: (§1) Aqueous NaHS solutions (0.25-3.5 mmol/L) could release H2S gas (10^−12˜10^−10 mol/L). H2S rapidly, reached to the highest levels within several minutes and maintained a constant concentration. […] The NaHS solution was renewed every 48 or 72 hours. The NaHS solution was placed in a sealed container separated by a partition board with pores on it. The fresh cut vegetables including Broccoli, Lettuce, Lotus Root, Yam, Pumpkin, Sweet Potato, Potato, etc, and the fresh cut fruits Apple, Pear, Kiwi Fruit, Tomato, Hami Melon, and Peach were placed above the board, while the NaHS solution was placed under the board. Therefore, the fresh cut vegetables and fruits were fumigated with H2S gas released from NaHS in the solution.
The control of freshly cut pears and peaches that were treated with water (0.0 mml/L NaHS), lost their edibility on day 2, while the shelf life of freshly cut pear and peach treated with 0.5 mmol/L-2.0 mmol/L NaHS solution was prolonged by 1-2 days. […] The control freshly cut pears and peaches treated with 0.0 mmol/L NaHS solution underwent rot process (due to physiological senescence and microbe infection) in 2.5 days, and the moldy rate reached 100% in 4 days.

[2] = test system: freshly cut yams, sweet potatoes and potatoes; test: NaHS solution fumigation of freshly cut yams, sweet potatoes and potatoes
Method: as §1
The control freshly cut yams, sweet potatoes and potatoes that were treated with water (0.0 mmol/L NaHS) underwent browning at 10˜12 hours, while the browning time of freshly cut yams, sweet potatoes and potatoes treated with 0.25-1.75 mmol/L NaHS solution was postponed by about 15-20 hours.

[3] = test system: freshly cut tomatoes; test: NaHS solution fumigation of freshly cut tomatoes at breaker stage
Method: as §1
The control freshly cut tomatoes that were treated with water (0.0 mmol/L NaHS) gradually turned red, and reached 100% maturation on day 5, while the maturation time of freshly cut tomatoes treated with 0.5 mmol/L-3.5 mmol/L NaHS solution was prolonged by 4-5 days.

[4] = Release of H2S gas from aqueous NaHS solutions; type: physicochemical; conditions: aqueous NaHS solutions 0.25-3.5 mmol/L
Method: as §1

[5] = test system: freshly cut Kiwi fruits; test: NaHS solution fumigation of freshly cut Kiwi fruits
Method: as §1
The control freshly cut Kiwi fruits that were treated with water (0.0 mmol/L NaHS) lost their color and their edibility completely on day 4, while the shelf life of freshly cut Kiwi fruits treated with 0.25 mmol/L-1.75 mmol/L NaHS solution was prolonged by 2-3 days. […] The control freshly cut Kiwi fruits treated with 0.0 mmol/L NaHS solution underwent rot process in 5 days, and the rot rate reached 100% in 7 days.

## S [NaHS, sodium hydrosulfide]
[1]; 0.5 mmol/L-2.0 mmol/L NaHS, control lost edibility on day 2
  shelf life prolonged by: 1 to 2 days
[1]; 1.5 mmol/L NaHS (best)
  shelf life prolonged by: 2 days
[1]; 1.5-2.0 mmol/L NaHS
  day until which micro-organisms did not appear: 5 days
[1]; 1.5-2.0 mmol/L NaHS, after 10 days, control 100% in 4 days
  moldy rate: 80%
[2]; 0.25-1.75 mmol/L NaHS, control browning at 10˜12 hours
  browning time postponed by: 15 to 20 h
[2]; 1.0-1.5 mmol/L NaHS (most optimal)
  browning time postponed by: 16 to 20 h
[3]; 0.5 mmol/L-3.5 mmol/L NaHS, control 100% maturation on day 5
  maturation time prolonged by: 4 to 5 days
[3]; 1.5 mmol/L-2.0 mmol/L NaHS (best)
  senescence time prolonged by: 5 days
[4]
  H2S gas released: 10^−12˜10^−10 mol/L
[5]; 0.25 mmol/L-1.75 mmol/L NaHS, control lost edibility on day 4
  shelf life prolonged by: 2 to 3 days
[5]; 1.5 mmol/L NaHS (best)
  shelf life prolonged by: 2 days
[5]; 1.5 mmol/L NaHS, control rot rate 100% in 7 days
  day until which micro-organisms did not appear: 10 days
